The source of these data is patent US5863905A, “2',5'-phosphorothioate/phosphodiester oligoadenylates and anti-viral uses thereof” (Temple University-Of The Commonwealth System of Higher …, priority 1997, dated 1999).

“And” between values parts separate entries of the source, which are not always exact repeats. Equal entries are not always repeated. “Also recorded” adds a separate entry of the source. Bounds are passed on as bounds.

The subject of one series is HIV-1 strain IIIB. The series can be described thus: Inhibition of HIV-1-induced syncytia formation (infected centers assay). The format is cell-based. To be noted: for inhibition of syncytia formation (in words): 3×10^-4 M (adenosine 9×10^-4 M); for inhibition of HIV-1-induced syncytia formation: 3×10^-4 M, PBL infected with HIV-1 IIIB, Sup T1 cells, read at 72 h. The source says:
FIG. 5A represents the results of an assay performed according to the method of Henderson et al., Virology 182: 186-198 (1991), indicating the inhibition of HIV-1 (IIIB)-induced syncytia formation by adenosine, 2-5A trimer or tetramer core or 2',5'- phosphorothioate/phosphodiester trimer derivatives: ARp *ApA, ASp *ApA, ApARp *A, ApASp *A, ARp *ApApA, ASp *ApApA, ApARp *ApA, ApASp *ApA, ApApARp *A, ApApASp *A.
FIG. 5B is the results of an assay performed according to the method of FIG. 5A with a 2',5'-phosphorothioate/phosphodiester tetramer derivative of 2-5A core.
The infected centers assay as described by Henderson et al., Virology 182: 186-198 (1991), was used to measure the ability of the phosphorothioate/phosphodiester derivatives of 2-5A trimer and tetramer cores to inhibit HIV-1 induced syncytia formation, an indicator of HIV-1 replication in T cells. Freshly isolated peripheral blood lymphocytes (PBL) were treated with 2-5A or derivatives for 2 h and infected with HIV-1 strain IIIB at a m.o.i. of approximately 0.1. The infected PEL were maintained in RPMI-1640 medium supplemented with 10% (v/v) heat-inactivated fetal calf serum at 37° C. in a humidified 5% CO2 in air atmosphere. After 48 h, the cells were washed twice in Hank's balaned salt solution, serially diluted and seeded into multiple wells of a 96-well microtiter plate. Immediately, 2×10^5 exponentially growing Sup T1 cells were added to each well; Sup T1 cells readily form a syncytium with a cell which is productively infected with HIV-1. The wells were examined daily for the presence of syncytia, using a tissue culture microscope. The first signs of syncytia formation can be seen in 12 h, with some complete syncytia developing by 24 h. Final results were read at 72 h. Each syncytium was counted as a single infected cell. The number of syncytia per seeded cell is determined and expressed as an infected center per infected cell. In the control (no 2-5A derivative added), 100% syncytia formation was equivalent to 12±3 syncytia per 200 HIV-1 infected cells.

The subject of a further series is RNase L. Put plainly: rRNA cleavage assay in L929 cell extracts (activation of RNase L). To be noted: 1 h at 30° C., > = no activation up to this concentration. Type of series: biochemical. Here is the method: FIG. 2A represents the results of a ribosomal RNA cleavage assay with 2',5'-phosphorothioate/phosphodiester trimer core 2-5A derivatives. The procedure was performed according to the method of Kariko et al., Biochemistry 26: 7127-7135 (1987). 2-5A oligomer (phosphodiester internucleotide linkage) is also included for comparison. L929 cell extracts were incubated in the absence (lane 1) or presence of p3 A3 at 10^-8 M (lane 2), ARp *ApA at 10^-6 M (lane 3), ASp *ApA at 10^-6 M (lane 4), ApARp *A at 10^-6 M (lane 5), ApASp *A at 10^-6 M (lane 6) or A3 at 10^-6 M (lane 7). The positions of 28S and 18S rRNA are shown; the arrows indicate the positions of the well-characterized specific cleavage products (SCP) of RNase L.
FIG. 2B represents the results of a ribosomal RNA cleavage assay performed according to the method of FIG. 2A with 2',5'-phosphorothioate/phosphodiester trimer 5'-monophosphate derivatives. L929 cell extracts were incubated in the absence (lane 1) or presence of p3 A3 at 2×10^-9 M (lane 2), pA3 at 10^-6 M (lane 3), pARp *ApA at 10^-7 M (lane 4), pASp *ApA at 10^-7 M (lane 5), pApARp *A at 2×10^-9 M (Lane 6), pApASp *A at 10^-7 M (lane 7).
FIG. 3A represents the results of a ribosomal RNA cleavage assay performed according to the method of FIG. 2A with 2',5'-phosphorothioate/phosphodiester tetramer core 2-5A derivatives. 2-5A oligomer (phosphodiester internucleotide linkage) is also included for comparison. L929 cell extracts were incubated in the absence (lane 1) or presence of p3 A4 at 10^-8 M (lane 2), A4 at 10^-5 M (lane 3), ARp *ApApA at 10^-5 M (lane 4), ASp *ApApA at 10^-5 M (lane 5), ApARp *ApA at 10^-5 M (lane 6), ApASp *ApA at 10^-5 M (lane 7), ApApARp *A at 10^-5 M (lane 8) or ApApASp *A at 10^-5 M (lane 9).
FIG. 3B represents the results of a ribosomal RNA cleavage assay performed according to the method of FIG. 2A with 2',5'-phosphorothioate/phosphodiester tetramer 5'-monophosphate derivatives. L929 cell extracts were incubated in the absence (lane 1) or presence of p3 A4 at 10^-8 M (lane 2), pA4 at 10^-6 M (lane 3), pARp *ApApA at 10^-6 M (lane 4), pASp *ApApA at 10^-6 M (lane 5), pApARp *ApA at 10^-8 M (lane 6), pApASp *ApA at 10^-5 M (lane 7), pApApARp *A at 10^-7 M (lane 8) or pApApASp *A at 10^-7 M (lane 9).
Activation of RNase L by the phosphorothioate/phosphodiester trimer and tetramer 2-5A derivatives was also measured in a rRNA cleavage assay using L929 cell extracts according to the method of Kariko et al. (1987), supra, in which extracts of L929 cells were incubated for 1 h at 30° C. in the presence or absence of 2-5A or 2-5A derivative. […] Authentic p3 A3 was active at 1×10^-8 M (FIG. 2A, lane 2). The corresponding 5'-monophosphates, pARp *ApA, pASp *ApA and pApARp *A, activated at 1×10^-7 M, 1×10^-7 M, and 2×10^-9 M, respectively (FIG. 2B, lanes 4-6), as compared with pA3 which was active at 1×10^-6 M (lane 3).

The test system of the next series is serum phosphodiesterases. Put plainly: Stability of 2-5A core derivatives to serum phosphodiesterase. Type of series: in vitro ADME, fetal calf. To be noted: for Hydrolysis Products / % Hydrolysis: 300 μM, 37° C.; for Hydrolysis Products: 10% fetal calf serum, 6 h, identified by HPLC; for % Hydrolysis: RPMI-1640 + 10% fetal calf serum, 6 h (A2, A3: 20 min); for hydrolysis (in words): serum-containing medium. Here is the method:
The stability of authentic 2-5A and phosphorothioate/phosphodiester trimer and tetramer core derivatives (300 μM) was determined by incubation in 200 μL of RPMI-1640 medium supplemented with 10% fetal calf serum in 5% CO2 -in-air at 37° C. Aliquots (30 μL) were removed at time zero and 6 hours. The hydrolysis products were identified by HPLC as described in Kariko et al. , Biochemistry 26: 7127-7135 (1987).
No hydrolysis of the phosphorothioate/phosphodiester trimer core derivatives was observed. However, the phosphorothioate/phosphodiester tetramer core derivatives were hydrolyzed from the 5'- or 2',3'-terminus, depending on the location of the phosphorothioate-substituted internucleotide linkage.

The test system of series [1] is HIV-1 reverse transcriptase. Put plainly: HIV-1 reverse transcriptase activity in culture supernatant of infected Sup T1 cells. The following applies: for Percent Inhibition of HIV-1 Reverse Transcriptase: 300 μM (adenosine and adenine 900 μM), 6 h pre-treatment, 96 h post-infection, average of triplicates. The format is cell-based. As for the experimental part:
Sup T1 cells were treated with 2-5A or a phosphorothioate/phosphodiester derivative at 300 μM for 6 hours and then infected with HIV-1 at a multiplicity of infection (M.O.I) of approximately 0.1. Adenosine and adenine were tested at 900 μM. At 96 hours post-infection, culture supernatant was removed and HIV-1 RT activity was assayed in triplicate as described by Henderson et al., Virology 182:186-198 (1991). Briefly in this method, 25 μl of culture supernatant was added to a 50 μl cocktail containing 50 mM Tris (pH 8.0), 20 mM dithiothreitol, 10 mM MgCl2, 60 mM NaCl, 0.05 Nonidet p-40, 5 μg/ml oligodeoxythymidylic acid, 10 μg/ml polyriboadenylic acid, 10 μM deoxythymidine triphosphate and 1 mCi [^32 p]thymidine 5'-triphosphate. The mixture was incubated at 37° C. for 2 hours. Fifty microliters of the cocktail were then spotted onto diethylaminoethyl (DEAE) paper, dried, washed with 2× SSC solution (three times for 10 minutes each time) and 95% ethanol (two times for 5 minutes each time), dried and exposed to radiographic film for 18 to 24 hours at -80° C. The filters were cut and final quantitation was determined by scintillation spectrometry.

With `Nc1ncnc2c1ncn2[C@@H]1O[C@H](CO[P@@](O)(=S)O[C@@H]2[C@H](O)[C@@H](COP(=O)(O)O[C@@H]3[C@H](O)[C@@H](COP(=O)(O)O[C@@H]4[C@H](O)[C@@H](CO)O[C@H]4n4cnc5c(N)ncnc54)O[C@H]3n3cnc4c(N)ncnc43)O[C@H]2n2cnc3c(N)ncnc32)[C@@H](O)[C@H]1O` [ApApARp *A, Adenylyl-(2'-5')-adenylyl-(2'-5')-(PR)-P-thioadenylyl-(2'-5')-adenosine], in the series with HIV-1 strain IIIB, the “inhibition of syncytia formation (in words)” value is recorded as “most efficient inhibitors” and the “inhibition of HIV-1-induced syncytia formation” value came to 90%. Further, the “concentration at which RNase L is activated to cleave rRNA to SCP” value (shortened to “concentration”) in the series on RNase L was 10000 nM. In the series with serum phosphodiesterases, the “Hydrolysis Products” value is on record as “inosine, hypoxanthine; also recorded: ApARp *A”; the “% Hydrolysis” value amounted to 30%; the “hydrolysis (in words)” value is “degraded from the 5'-terminus; also recorded: hydrolyzed from the 5'-terminus”. The “Percent Inhibition of HIV-1 Reverse Transcriptase” value (shortened to “Percent Inhibition”) in series [1] is listed as 38%.

Turning to `Nc1ncnc2nc[nH]c12` [adenine, reference compound], the “inhibition of syncytia formation (in words)” value in the series with HIV-1 strain IIIB was “not able to inhibit syncytia formation”. Moreover, in series [1], the “inhibition of HIV-1 RT activity (in words)” value is on record as “did not inhibit HIV-1 RT activity” and the “Percent Inhibition” value is reported as 4%.

With `Nc1ncnc2c1ncn2[C@@H]1O[C@H](CO)[C@@H](O)[C@H]1O` [adenosine, reference compound], the “inhibition of syncytia formation (in words)” value in the series with HIV-1 strain IIIB is reported as “did not inhibit syncytia formation”. The “inhibition of syncytia formation (in words)” value in the series on HIV-1 strain IIIB (listed as Adenosine) is on record as “not able to inhibit syncytia formation”. In addition, in series [1], the “inhibition of HIV-1 RT activity (in words)” value was “did not inhibit HIV-1 RT activity” and the “Percent Inhibition” value is recorded as 0%.

Turning to “(PR)-P-thioadenylyl-(2',5')-adenylyl-(2',5')-adenosine [ARp *ApA]”, the “inhibition of HIV-1-induced syncytia formation” value with HIV-1 strain IIIB is given as 10%. Besides, the “concentration” value in the series on RNase L is more than 1000 nM. Further, in the series with serum phosphodiesterases, the “Hydrolysis Products” value is reported as “not hydrolyzed” and the “% Hydrolysis” value amounted to 0%. In series [1], the “Percent Inhibition” value was found to be 32%.

Turning to “(PR)-P-thioadenylyl-(2',5')-adenylyl-(2',5')-adenylyl-(2',5')-adenosine [ARp *ApApA]”, the “inhibition of HIV-1-induced syncytia formation” value with HIV-1 strain IIIB was 16%. In the series on serum phosphodiesterases, the “Hydrolysis Products” value is given as “inosine, hypoxanthine; also recorded: ARp *A”; the “% Hydrolysis” value is 50% and 100%; the “hydrolysis (in words)” value is “rapidly hydrolyzed from the 2',3'-terminus”. Moreover, the “Percent Inhibition” value in series [1] turned out to be 57%.

With “(PS)-P-thioadenylyl-(2',5')-adenylyl-(2',5')-adenosine [ASp *ApA]”, the “inhibition of HIV-1-induced syncytia formation” value in the series with HIV-1 strain IIIB worked out at 15%. In the series on RNase L, the “concentration” value was more than 1000 nM. Besides, in the series with serum phosphodiesterases, the “Hydrolysis Products” value is on record as “not hydrolyzed” and the “% Hydrolysis” value turned out to be 0%. In series [1], the “Percent Inhibition” value was 56%.

In the case of “(PS)-P-thioadenylyl-(2',5')-adenylyl-(2',5')-adenylyl-(2',5')-adenosine [ASp *ApApA]”, in the series with HIV-1 strain IIIB, the “inhibition of HIV-1-induced syncytia formation” value came out at 18%. For the same compound, in the series with serum phosphodiesterases, the “Hydrolysis Products” value was “inosine, hypoxanthine; also recorded: ASp *A”; the “% Hydrolysis” value was 50% and 100%; the “hydrolysis (in words)” value was “rapidly hydrolyzed from the 2',3'-terminus”. For the same compound, the “Percent Inhibition” value in series [1] is listed as 54%.

With “Adenylyl-(2',5')-(PS)-P-thioadenylyl-(2',5')-adenylyl-(2',5')-adenosine [ApASp *ApA]”, the “inhibition of HIV-1-induced syncytia formation” value in the series on HIV-1 strain IIIB is on record as 32%. Also, in the series on serum phosphodiesterases, the “Hydrolysis Products” value is recorded as “inosine, hypoxanthine; also recorded: ASp *ApA” and the “% Hydrolysis” value was found to be 50%. In addition, the “Percent Inhibition” value in series [1] is given as 42%.

For “Adenylyl-(2',5')-adenylyl-(2',5')-(PS)-P-thioadenylyl-(2',5')-adenosine [ApApASp *A]”, in the series with HIV-1 strain IIIB, the “inhibition of syncytia formation (in words)” value is reported as “most efficient inhibitors” and the “inhibition of HIV-1-induced syncytia formation” value came to 76%. Also, in the series with serum phosphodiesterases, the “Hydrolysis Products” value is listed as “inosine, hypoxanthine; also recorded: ApASp *A”; the “% Hydrolysis” value was 33%; the “hydrolysis (in words)” value is reported as “degraded from the 5'-terminus; also recorded: hydrolyzed from the 5'-terminus”. The “Percent Inhibition” value in series [1] is on record as 62%.
